“Also recorded” adds a separate entry of the source.
Legend:
[1] = test system: NEAT1; test: NEAT1 induction under low/chronic or high stress conditions; format: cell-based, human
Source text: FIGS. 4A-4F. NEAT1 is induced in human and mouse cells exposed to low stress conditions including exposure to the inducer of senescence aurora-kinase inhibitor AZD1152-HQPA (AZD; FIG. 4A), low doses of Rotenone (Rot; FIG. 4B) that promotes oxidative stress, low doses of doxorubicin (Doxo, FIG. 4C) and replicative stress-induced damage (RS; FIG. 4D).
It has been shown that p53 is induced in MEFs during passages as a response to increasing oxidative stress levels generated by culturing of the cells in normoxic conditions. […] This is in line with chronic stress caused by UV radiation.
The same is true for cells that are exposed to high doses of irradiation (FIG. 4F).

[2] = test system: NEAT1; test: NEAT1 knock-down by LNA-gapmers (relative RNA levels, qPCR); format: cell-based, human; details: for NEAT1 expression (knock-down): gapmer transfection, cancer cell lines; for NEAT1 isoforms inhibited: long (NEAT1_2) versus short isoform
Source text: (§1) FIGS. 8A-8D. NEAT1 KD reduces the cell viability of human cancer cell lines. Gapmers 4 and 5 (gap 4 and 5) were used to knock-down the expression of all NEAT1 isoforms, and Gapmer 6 (gap 6) to specifically KD expression of the long isoform, in a series of cancer cell lines.
FIGS. 9A-9C. Knock-down of NEAT1 impairs HR and NHEJ DNA repair (FIG. 9A) but not Alt-NHEJ or SSA (FIG. 9B). […] SCR: scrambled control. Blue bars, all NEAT1 isoforms. Green bars, long NEAT1 isoform.
(§2) To differentiate between the different isoforms of NEAT, the following strategy was used. All qPCRs labeled NEAT1 or NEAT1_1 were done with primers targeting the region of +/−2200 bp. The knock-down probes labeled as such also target the region between 2000 and 3756 bp. The RNA-FISH probeset used is made up of a large set of oligos targeting region 1-3756 bp. The primers and knock-down probes labeled NEAT1_2 (the long transcript) target a region of +/−21300 bp. The RNA-FISH probes (again a set of oligos) target the portion from 3800-11700 bp to avoid detection of shorter isoforms.
(§3) To further extend the anti-oncogenic effects observed in NEAT1 KO mice, NEAT1 was inhibited in different cancer cells using LNA-gapmers.
To confirm the hypothesis that NEAT1 inhibition interferes with DNA repair, U2OS cells were exposed to different concentrations of the DNA-damaging agent bleomycin. In NEAT1-inhibited cells, DNA damage (as measured by γH2AX intensity) is indeed increased (FIG. 9C, last three panels). Thus, DNA repair is severely impaired in NEAT1 KD cells.

[3] = test system: BJ; test: Paraspeckles formation in immortalized human diploid fibroblast cell line BJ; format: cell-based; details: BJ cells, LNA-gapmer transfection
[4] = test system: MCF-7 cells; test: Paraspeckles formation by NEAT1 RNA-FISH in Nutlin3a-treated MCF-7 cells; format: cell-based, human; details: for Nutlin-induced paraspeckles formation: MCF-7 following Nutlin exposure, gapmer transfection
Experimental: FIGS. 3A and 3B. […] FIG. 3A: MCF-7 cells were exposed to Nutlin3a (for 24 hours) and paraspeckles formation (red dots) was assessed by FISH-analysis with a NEAT1-specific probe set. Nuclei were counter-stained with DAPI (Blue). FIG. 3B: Quantification of paraspeckles formation in MCF-7 cells exposed to Nutlin3a before (mock) and after transfection of the cells with a control/scramble gapmer (scr) or gapmers targeting the NEAT1 transcripts (gap4 and gap6).
as §2
A similar observation in MCF-7 cells treated with p53 shRNA confirms again that this induction is p53-dependent (data not shown). Thus, p53 stimulates the formation of paraspeckles in these cells.

[5] = test system: MCF-7; test: WST1-assay of cell growth / metabolic activity; format: cell-based, human; details: gapmer transfection
Source text: as §1, §3

[6] = test system: cancer cell lines; test: Apoptosis, caspase 3/7 glow assay and FACS analysis; format: cell-based, human; details: gapmer transfection
Source text: as §1, §3

[7] = test system: cancer cell lines; test: Paraspeckles formation in cancer cell lines after gapmer transfection; format: cell-based, human
Source text: as §1, §3

[8] = test system: NEAT1; test: NEAT1 induction by Nutlin in mouse embryonic fibroblasts; format: cell-based; details: early passage (P3) MEFs
Source text: FIGS. 7A-7F. NEAT1 is required for primary cells immortalization. NEAT1 expression in induced in mouse embryonic fibroblasts (MEFs) upon Nutlin3a exposure (FIG. 7A) and replicative passaging on a 3T3 protocol (FIG. 7B).

[9] = test system: NEAT1; test: NEAT1 induction by Nutlin3a (RNA-seq, qPCR) in human cell lines; format: cell-based
Experimental: (§4) FIG. 1 provides evidence that NEAT1 is a direct p53 target gene in the breast cancer cell line MCF-7. RNA-seq and p53 ChIPseq experiments have been carried out in MCF-7 cells following exposure to the MDM2 antagonist Nutlin3a for 24 hours.
(§5) This upregulation is mediated through the recruitment of p53 to the NEAT1 promoter as illustrated by the increase intensity of the p53-ChIP-seq peaks (green in FIG. 1).
Both isoforms are affected, with the effect being stronger for the longer isoform (NEAT1_2).
as §2

[10] = test system: NEAT1 promoter; test: p53 ChIP-seq in MCF-7 cells; format: cell-based, human; details: 24 hours
Experimental: as §4, §5

C=C(C)[C@H]1Cc2c(ccc3c2O[C@@H]2COc4cc(OC)c(OC)cc4[C@@H]2C3=O)O1 [rotenone]
NEAT1 induction ([1]; BJ cells, oxidative stress): induced

NEAT1-Gapmer6: LNA-gapmer, SEQ ID NO: 4, CTCACACGTCCATCT; specific for the long isoform of NEAT1 (LNA gapmer, LNA positions and linkages not given here)
NEAT1 expression (knock-down) [2]: efficiently knockdown NEAT1 | NEAT1 isoforms inhibited [2]: specific for the long isoform | KD efficiency ([2]; long transcript NEAT1_2, U2OS cells): about 50% | formation of paraspeckles [3]: decrease the formation of paraspeckles | Nutlin-induced paraspeckles formation [4]: dramatically attenuated | MCF-7 growth (WST1-assay) [5]: decrease MCF-7 growth significantly

COc1cccc2c1C(=O)c1c(O)c3c(c(O)c1C2=O)C[C@@](O)(C(=O)CO)C[C@@H]3O[C@H]1C[C@H](N)[C@H](O)[C@H](C)O1 [Doxorubicin]
NEAT1 induction ([1]; higher dose (5 μM)): not significantly | NEAT1 induction ([1]; low dose): induced

NEAT1-Gapmer4: LNA-gapmer, SEQ ID NO: 2, GACGTAACAGAATT; inhibits both long and short isoform of NEAT1 (LNA gapmer, LNA positions and linkages not given here)
NEAT1 expression (knock-down) ([2]; listed as gap 4): efficiently knockdown NEAT1; also recorded: robust decrease in NEAT1 expression | NEAT1 isoforms inhibited [2]: inhibit both the long and short isoform of NEAT1 | formation of paraspeckles [3]: decrease the formation of paraspeckles | apoptosis (caspase 3/7 glow assay, FACS analysis) [6]: induction of apoptosis | paraspeckles formation [7]: robust decrease | Nutlin-induced paraspeckles formation [4]: dramatically attenuated | MCF-7 growth (WST1-assay) [5]: decrease MCF-7 growth significantly

NEAT1-Gapmer5: LNA-gapmer, SEQ ID NO: 3, TAAGCACTTTGGAAAG; inhibits both long and short isoform of NEAT1 (LNA gapmer, LNA positions and linkages not given here)
NEAT1 expression (knock-down) ([2]; listed as gap 5): efficiently knockdown NEAT1; also recorded: robust decrease in NEAT1 expression | NEAT1 isoforms inhibited [2]: inhibit both the long and short isoform of NEAT1 | apoptosis (caspase 3/7 glow assay, FACS analysis) [6]: induction of apoptosis | paraspeckles formation [7]: robust decrease | MCF-7 growth (WST1-assay) [5]: decrease MCF-7 growth significantly

COc1ccc(C2=N[C@@H](c3ccc(Cl)cc3)[C@@H](c3ccc(Cl)cc3)N2C(=O)N2CCNC(=O)C2)c(OC(C)C)c1 [Nutlin3a]
expression of NEAT1 [8]: induces expression of NEAT1 | transcription of NEAT1 (RNA-seq) ([9]; MCF-7 cells, 24 hours): induces transcription of NEAT1 | expression of NEAT1 ([9]; U2OS, A459, human ES cells, BJ): induces expression of NEAT1 | NEAT1 induction ([9]; colorectal cancer cell line HCT116): NEAT1 induction in response to Nutlin can be seen | NEAT1 induction ([9]; isogenic p53 KO HCT116 cell line): not in an isogenic p53 KO HCT116 cell line | paraspeckles formation ([4]; MCF-7 cells, Nutlin alone): induces paraspeckles formation | recruitment of p53 to the NEAT1 promoter (p53-ChIP peaks) [10]: p53 is directly recruited to the NEAT1 promoter

CCN(CCO)CCCOc1ccc2c(Nc3cc(CC(=O)Nc4cccc(F)c4)[nH]n3)ncnc2c1 [AZD, AZD1152-HQPA]
NEAT1 induction ([1]; melanoma cells Mel 501 undergoing senescence): induced

Reference: US9783803B2, “Inhibition of NEAT1 for treatment of solid tumors” (VIB VZW, priority 2014, dated 2017)
